Test system: human colon cancer cell line (HCT116)
Test: Example 4: THP-1-mediated phagocytic activity, anti-CAPRIN-1, anti-CD20 or anti-HER-2 antibody alone or with olaparib
Format: cell-based
Details: 1×10^4 HCT116 cocultured 1 hour with 1×10^5 THP-1, antibody final concentration 1 μg/mL (1 μM); for combination HCT116 cultured 2 days with olaparib 20 μM beforehand; N=3
Method: The human-derived cancer cell used was a colon cancer cell line HCT116.
Each cancer cell line after the culture was dissociated with TrypLE Express (Thermo), and the cancer cells were stained by the addition of calcein-AM at a final concentration of 0.04 μg/mL and incubation at 37° C. for 10 minutes. […] Further, dead cells were stained with propidium iodide (PI) (final concentration: 0.1 μg/mL), followed by the measurement of fluorescence from the cells by flow cytometry. PI-positive dead cells were excluded from analysis. The human monocytic cells THP-1 recognize an antibody bound onto cancer cells and phagocytize the cancer cells. At that time, if the cancer cells have been stained with calcein-AM, the monocytic cells ingesting the cancer cells by phagocytosis also become positive to calcein-AM. Thus, the phagocytic activity in this evaluation system was calculated as the ratio (%) of APC-positive/calcein-AM-positive cells to the whole calcein-AM-positive population.

**Q.** How did the “phagocytic activity against cancer cells” value turn out when “anti-CD20 antibody: anti-CD20 antibody (“Rituxan”) purchased from Chugai Pharmaceutical Co., Ltd.” was run?
**A.** The value was at most 7%.
